Test system: SZ95 sebocytes
Test: Detection of lipids (nile red fluorescence) in SZ95 sebocytes
Assay type: cell-based, human
Details: for production of neutral (sebaceous) lipids: 24 vs 48 hours
Method: C., Seltmann, H., Neitzel, H. & Orfanos, C. E. (1999) J. Invest. Dermatol. 113, 1011-1020], were maintained in Sebomed Basal Medium (Biochrom, Berlin) supplemented with 5 ng/ml human epidermal growth factor (Sigma), 10% heat inactivated FCS (Biochrom GmbH, Berlin, Germany), 50 ug/ml gentamicin (GIBCO/BRL), and 1 mM Ca2+, in a humidified atmosphere of 5% CO2 at 37° C. Shortly before the experiments were performed, BSA-medium [constituted of Sebomed Basal Medium supplemented with 1 mg/ml fatty acid-free BSA (Boehringer Mannheim), 1 mM Ca2+, and 10^-6 M linoleic acid (Sigma)] or Sebomed Complete Medium (Biochrom) was added to the cells. The SZ95 human sebocytes used for the experiments were between passages 31 and 35. The cells were subcultured at 60-70% confluence. The cultures were maintained at 37° C. in a humidified 5% CO2 incubator and the medium was replaced every 2-3 days.
The cells were cultured in 96-well tissue culture plates at a density of 2,000 cells per well for 2 days. The wells were then washed with PBS, and Sebomed Complete Medium was added. After 2 days, the medium was harvested, and fresh medium without or with INDIP peptide (SEQ ID NO: 2) at a concentration of 0, 0.1, 1, 10, or 20 μM in the presence and absence of Linoleic acid (5×10^−5 and 10^−4 M) and Testosterone (2×10^−8 M) was given to the cells. The supernatants were harvested 24 or 48 h later; the wells were washed twice with PBS, and 100 μl of a 10 μg/ml nile red solution in PBS was added to each well. 10 uM of scrambled INDIP peptide (i.e. a scrambled version of SEQ ID NO: 2) was used as the negative control peptide. The plates were then incubated at 37° C. for 30 min, and the released fluorescence was read on a Molecular Devices SPECTRAmax Gemini spectrofluorometer. The results are presented as percentages of the absolute fluorescence units in comparison with the controls, using 485 nm excitation and 565 nm emission filters for neutral lipids and 540 nm excitation and 620 nm emission filters for polar lipids. Experiments were performed in triplicate, with 10 wells evaluated for each data point in each experiment.

Sequence: YGRKKRRQRRRGEPHKFKREW ((1)..(11) Tat; (12)..(21) Insig-1) [INDIP peptide (SEQ ID NO: 2), PTD-fused (TAT protein transduction domain) Insig-1 ubiquitination region peptide]
- production of neutral (sebaceous) lipids (10 μM peptide, occasionally, absence or presence of linoleic acid and testosterone): significantly reduced
- production of neutral (sebaceous) lipids (20 μM peptide, greater effect as time progressed, absence or presence of linoleic acid and testosterone): significantly reduced
- sebaceous differentiation (all conditions tested, with and without linoleic acid and testosterone): able to reduce
- lipid production (application to SZ95 sebocytes in vitro): Significant Reduction
- polar lipids (membrane synthesis, synthetic activity of the cells) (concomitant with the neutral lipid reduction, absence or presence of linoleic acid and testosterone): concomitant reduction

From US11117939B2, “Polypeptides and antibodies to treat skin conditions associated with overproduction of sebum” (University of Sasketchewan, priority 2015, dated 2021)
